Data on 47 compounds can be found in article PMC6882446, “Further validation of strecker-type α-aminonitriles as a new class of potent human carbonic anhydrase II inhibitors: hit expansion within the public domain using differential scanning fluorimetry leads to chemotype refinement” (Journal of Enzyme Inhibition and Medicinal Chemistry, 2019).

As a reminder, the Ki is a measure of affinity in units of concentration, obtained from inhibition or displacement. Read a high Ki as weaker binding. The term ΔTm denotes the shift of the melting midpoint relative to a reference.

The structures appear in SMILES notation. Like-named read-outs stand apart in the source and are kept apart here.

The target in test [1] is T1, hCA II (Homo sapiens, UniProt P00918).
T1 construct: gene CA2; recombinant human CA II, obtained in-house
As to the kind of experiment: stopped-flow CO2 hydration assay. The class given is biochemical. The source says:
stopped-flow CO2 hydration assay on hCA II

Test [2] addresses T2, bCA (Bos taurus, UniProt P00921).
T2 construct: gene CA2; commercial bovine carbonic anhydrase
Nature of the test: biochemical. Further details: Differential scanning fluorimetry (SYPRO Orange) melting temperature shift of bCA, 20 uM compound. How it is done: (§1) Thermal shift assay was carried out using ViiA™ 7 Real-Time PCR System equipped with 384-well block (Applied Biosystems, USA). The TSA procedure was adopted from the literature[6–8] and was modified in order to allow measuring the bCA melting temperature on interaction with various compounds, including the known CA inhibitor azetazolamide (AZ)[9], which was used in this study as a reference bCA binder at 10 and 20 µM concentration. For 800-compound screening, the test reactions were set up in the following buffer: 10 mM NaH2PO4/Na2HPO4, pH 7.0, 10 mM NaCl. The total volume of the reaction mixture per well was 10 µL. Carbonic anhydrase (Sigma Aldrich Cat# C3934) in 300 µg/mL concentration was pre-mixed with environment-sensitive SYPRO orange dye (Invitrogen, Cat# S6650) at final concentration in the reaction of 10 ×, with regard to the stock concentration stated by the vendor. The mixtures were pre-incubated for 1 h at 4 °C with 20 µM concentrations of the compounds (and 1% final concentration of DMSO), placed into MicroAmp® Optical 384-Well Reaction Plate (ThermoFisher, Cat# 4309849). The reaction mixture was kept at room temperature for 15 min to ensure full protein-compound interactions. The temperature was raised at 1.6 °C/s rate to 40 °C without signal reading. Starting from 40 °C up to 85 °C the heating rate was set to 0.05 °C/s with constant fluorescence reading, using 470/623 nm filter set. The raw data of dye fluorescence intensity change upon melting of the protein were obtained from the instrument ViiA 7 RUO software. Further data processing and visualisation was performed by custom-made Microsoft Excel scripts. The peak of the first derivative for the fluorescence curve was used to define melting temperature Tm. Tm for DMSO control wells, having only protein, dye and 1% DMSO was used as a To to determine melting temperature shifts (ΔTm). All measurements were made in quadruplicates.

Test [3] deals with T2, bCA. Nature of the test: biochemical. Details: differential scanning fluorimetry (thermal shift) with SYPRO Orange, bovine carbonic anhydrase. The method, then: as §1, with “For” for “Thermal shift assay was carried out using ViiA™ 7 Real-Time PCR System equipped with 384-well block (Applied Biosystems, USA). The TSA procedure was adopted from the literature[6–8] and was modified in order to allow measuring the bCA melting temperature on interaction with various compounds, including the known CA inhibitor azetazolamide (AZ)[9], which was used in this study as a reference bCA binder at 10 and 20 µM concentration. For”, “quadruplicates. Thermal shift assay was carried out using ViiA™ 7 Real-Time PCR System equipped with 384-well block (Applied Biosystems, USA). The TSA procedure was adopted from the literature[6–8] and was modified in order to allow measuring the bCA melting temperature on interaction with various compounds, including the known CA inhibitor azetazolamide (AZ)[9], which was used in this study as a reference bCA binder at 10 and 20 µM concentration.” for “quadruplicates.”

[4] abbreviates: CO2 […]; […] Hepes pH […]; […] Na2SO4, room temperature, […] min pre-incubation.

T2 sequence (P00921 2-260): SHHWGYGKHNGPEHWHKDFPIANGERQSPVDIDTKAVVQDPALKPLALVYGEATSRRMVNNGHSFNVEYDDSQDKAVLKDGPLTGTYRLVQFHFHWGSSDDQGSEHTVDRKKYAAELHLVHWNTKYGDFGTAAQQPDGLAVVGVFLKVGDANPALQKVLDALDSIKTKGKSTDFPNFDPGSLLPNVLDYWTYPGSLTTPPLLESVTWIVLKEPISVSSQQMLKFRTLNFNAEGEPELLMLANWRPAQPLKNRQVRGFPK

With `COc1ccc(C(C#N)N2CCN(C(=O)c3ccc(Br)cc3)CC2)cc1` (stereo not drawn) [compound 4, Z118259550], in test [1] (setting [4]), the Ki was more than 100 µM.

`N#CC(Nc1ccc(F)cc1)c1ccco1` (stereo not drawn) [compound 5, Z131022682] gave a Ki in test [1] (setting [4]) of 8.1 µM.

As for `COc1ccc(C(C#N)N2CCN(C(=O)c3ccc4[nH]c5c(c4c3)CC(C)CC5)CC2)cc1` (stereo not drawn) [compound 7, Z118259780], in test [1] (setting [4]), the Ki is more than 100 µM.

For the compound `N#CC(c1ccccc1)N1CCN(C(=O)C2CCN(S(=O)(=O)c3ccccc3F)CC2)CC1` (stereo not drawn) [compound 8, Z118260178], the affinity in test [1] (setting [4]) corresponds to a Ki of 74.3 µM.

As to `COc1ccc(C(C#N)N2CCN(C(=O)c3ccc(S(=O)(=O)N4CCCCCC4)cc3)CC2)cc1` (stereo not drawn) [compound 9, Z118259626], the Ki in test [1] (setting [4]) is more than 100 µM.

In test [1] (setting [4]), `N#CC(c1ccccc1)N1CCN(C(=O)c2ccccc2)CC1` (stereo not drawn) [compound 10, Z146786712] returned a Ki of 53.7 µM.

In the case of `N#CC(C1CCCCC1)N1CCN(C(=O)CCc2ccccn2)CC1` (stereo not drawn) [compound 12, Z913897024], the Ki in test [1] (setting [4]) stood at 40.9 µM.

The compound `CC1(C)CN(C(C#N)c2ccc(Cl)cc2)CCO1` (stereo not drawn) [compound 13, Z1097120891] returned a Ki in test [1] (setting [4]) of 7.4 µM.

`CCNC(=O)C1CCCN(C(C#N)c2c(F)cccc2Cl)C1` (stereo not drawn) [compound 14, Z1230758078]: the inhibition constant (Ki) in test [1] (setting [4]) came to 9.3 µM.

In the case of `CC(C)C(C#N)N1CCN(c2ncnc3cc(F)ccc23)CC1` (stereo not drawn) [compound 15, Z1251205230], the Ki in test [1] (setting [4]) was more than 100 µM.

Regarding `CC(C)C(C#N)N1CCN(c2ncnc3ccsc23)CC1` (stereo not drawn) [compound 16, Z1251205249], in test [2], the ΔTm at 20 µM came out at 1.5 °C. The compound also displayed a Ki in test [1] of 0.97 µM.

In the case of `CC(C)C(C#N)N1CCN(CC(=O)NCc2ccccn2)CC1` (stereo not drawn) [compound 17, Z1176496598], the ΔTm at 20 µM in test [2] amounted to 1.14 °C. Further, the Ki in test [1] stood at 0.78 µM.

In the case of `CCNC(=O)CCCC(=O)N1CCN(C(C#N)c2ccccc2)CC1` (stereo not drawn) [compound 18, Z1185260979], the ΔTm at 20 µM in test [2] was found to be 1.41 °C. The compound also had a Ki in test [1] of 0.93 µM.

`N#CC1CN(C(=O)CCc2ccsc2)CCN1Cc1ccccc1` (stereo not drawn) [compound 19, Z1204316164] yielded a Ki in test [1] (setting [4]) of 9.6 µM.

For `Cc1cnc(C(=O)N2CCN(Cc3ccccc3)C(C#N)C2)cn1` (stereo not drawn) [compound 20, Z1204317166], the affinity in test [1] (setting [4]), expressed as Ki, was 100 µM.

With `N#Cc1nccnc1N1CCN(Cc2ccccc2)C(C#N)C1` (stereo not drawn) [compound 21, Z1205181012], the Ki in test [1] (setting [4]) was more than 100 µM.

In the case of `CCC(CC)c1cc(C(=O)N2CCN(C(C#N)C(C)C)CC2)on1` (stereo not drawn) [compound 22, Z1261078980], the Ki in test [1] (setting [4]) was more than 100 µM.

For `CC(C)C(C#N)N1CCN(C(=O)c2scnc2C(C)(C)C)CC1` (stereo not drawn) [compound 23, Z1322755479], the affinity in test [1] (setting [4]), expressed as Ki, was 9.1 µM.

`N#CC(c1c(F)cccc1Cl)N1CCCC(N2CCNC2=O)C1` (stereo not drawn) [compound 24, Z1298330150]: the affinity in test [1] (setting [4]), expressed as Ki, was 16 µM.

With `N#CC(c1c(F)cccc1Cl)N1CCC(N2CCCC2=O)CC1` (stereo not drawn) [compound 25, Z1298979831], the affinity in test [1] (setting [4]) corresponds to a Ki of 36.1 µM.

In test [1] (setting [4]), `CNC(=O)C1CCN(C(C#N)c2c(F)cccc2Cl)CC1` (stereo not drawn) [compound 26, Z1297989190] came in with a Ki of 3 µM.

Compound `CC(C)C(C#N)N1CCN(C(=O)C/C=C/c2cccc(F)c2)CC1` (stereo not drawn) [compound 27, Z1343956502] registered an inhibition constant Ki in test [1] (setting [4]) of more than 100 µM.

On to `N#CC(c1ccccc1)N1CCN(CC(=O)NC2CCOCC2)CC1` (stereo not drawn) [compound 28, Z1317906129], for which the affinity in test [1] (setting [4]), expressed as Ki, was 8.9 µM. This counts as single-digit micromolar.

On to `N#CC(c1ccccc1)N1CCN(Cc2cccnc2)CC1` (stereo not drawn) [compound 29, Z1317905741], for which the inhibitory constant (Ki) in test [1] (setting [4]) was determined as 3.7 µM. Compared with the last compound, the Ki is about 2.4-fold lower.

Turning to `COc1ccc(C(C#N)N2CCN(C(=O)C3CCCCC3)CC2)cc1` (stereo not drawn) [compound 30, Z146384300], the thermal shift (ΔTm) at 20 µM in test [2] came out at 1.64 °C. Moreover, the affinity in test [1] corresponds to a Ki of 0.91 µM.

With `CCc1noc(CC)c1CC(=O)N1CCN(C(C#N)C(C)C)CC1` (stereo not drawn) [compound 31, Z1390085782], in test [2], the ΔTm at 20 µM was 1.55 °C. The Ki in test [1] is 0.76 µM.

`CNS(=O)(=O)CCCN1CCN(C(C#N)c2ccccc2)CC1` (stereo not drawn) [compound 32, Z1395303258]: in test [1], the Ki is 0.86 µM.

`N#CC(c1ccccc1)N1CCN(CC(=O)NCC2CCC2)CC1` (stereo not drawn) [compound 33, Z1395304494] returned an inhibitory constant (Ki) in test [1] (setting [4]) of 5.3 µM.

`Cc1ccc(N(CC(=O)N2CCN(C(C#N)C(C)C)CC2)C(C)C)cc1` (stereo not drawn) [compound 34, Z1567293695] returned a Ki in test [1] (setting [4]) of 5 µM.

For the compound `Cc1ccccc1CN1CCN(C(=O)CN2CCN(C(C#N)C(C)C)CC2)CC1` (stereo not drawn) [compound 35, Z1171402445], in test [2], the shift in melting temperature (ΔTm) at 20 µM was determined as 1.82 °C. The compound also gave a Ki in test [1] of 60.5 µM.

Take `CC(C)C(C#N)N1CCN(C(=O)CSc2ccc(Br)cc2)CC1` (stereo not drawn) [compound 36, Z1167646026]: in test [1], the affinity, expressed as Ki, was 29.8 µM.

Consider `CC(C)C(C#N)N1CCN(C(=O)CSc2ccc(Br)cc2)CC1` (stereo not drawn) [compound 36], for which the ΔTm at 20 µM in test [3] was 1.64 °C.

Take `N#CC(c1ccccc1)N1CCN(CC2CCOC2)CC1` (stereo not drawn) [compound 37, Z1395305944]: in test [1] (setting [4]), the Ki was 2.3 µM.

`N#CC(c1ccc(Br)cc1)N1CCN(CCN2C(=O)CNC2=O)CC1` (stereo not drawn) [compound 38, Z1567199718] displayed an inhibition constant Ki in test [1] (setting [4]) of 5 µM. Against the preceding compound, the Ki is about 2.2-fold higher.

`CC(C)C(C#N)N1CCN(C(=O)C2CCCO2)CC1` (stereo not drawn) [compound 39, Z1167645477] came in with a Ki in test [1] of 20.4 µM.

For `CC(C)C(C#N)N1CCN(C(=O)C2CCCO2)CC1` (stereo not drawn) [compound 39], the ΔTm at 20 µM in test [3] is 1.64 °C.

Regarding `CC(C#N)N1CCN(C(=O)OC(C)(C)C)CC1` (stereo not drawn) [compound 40, Z1124717499], the inhibition constant (Ki) in test [1] (setting [4]) was 41.9 µM.

Take `Cc1ccc(C(=O)NCC(=O)N2CCN(C(C#N)C(C)C)CC2)cc1` (stereo not drawn) [compound 41, Z1416783341]: in test [1] (setting [4]), the Ki worked out at 35.1 µM.

In test [1] (setting [4]), `N#CC1COCCN1` (stereo not drawn) [compound 43, Z1198234963] returned a Ki of more than 100 µM.

Regarding `CC(C)C(C#N)N1CCN(C(=O)CN2CCOC(c3ccc(F)cc3)C2)CC1` (stereo not drawn) [compound 45, Z1567277098], the Ki in test [1] (setting [4]) worked out at 40.9 µM. This lies in the double-digit micromolar range.

Regarding `COc1ccc(C(=O)N2CCN(C(C#N)C(C)C)CC2)cc1OC(F)F` (stereo not drawn) [compound 46, Z1126852482], in test [1], the affinity, expressed as Ki, was 3.7 µM.

Regarding `COc1ccc(C(=O)N2CCN(C(C#N)C(C)C)CC2)cc1OC(F)F` (stereo not drawn) [compound 46], the ΔTm at 20 µM in test [3] amounted to 1.37 °C.

`CC(C)C(C#N)N1CCN(Cc2nccn2CC(F)(F)F)CC1` (stereo not drawn) [compound 47, Z1176495724] came in with a Ki in test [1] of 38.2 µM.

For `CC(C)C(C#N)N1CCN(Cc2nccn2CC(F)(F)F)CC1` (stereo not drawn) [compound 47], the ΔTm at 20 µM in test [3] is 1.19 °C.

`Cc1ccc(C(=O)C2CCN(CC(=O)N3CCN(C(C#N)C(C)C)CC3)CC2)cc1` (stereo not drawn) [compound 48, Z1567280757]: in test [1] (setting [4]), the affinity corresponds to a Ki of 5.5 µM. This counts as single-digit micromolar.

`N#CC(c1ccccc1)N1CCN(CC(=O)NCC(F)(F)F)CC1` (stereo not drawn) [compound 49, Z1317905463] returned a Ki in test [1] (setting [4]) of 3.5 µM.

For the compound `Cn1cc(CN2CCN(C(C#N)c3ccccc3)CC2)c(-c2cccnc2)n1` (stereo not drawn) [compound 50, Z1470771430], the ΔTm at 20 µM in test [2] stood at 1.37 °C. The compound further came in with an inhibition constant Ki in test [1] of 0.68 µM.
